Source: ChEMBL document CHEMBL4145513, “An overview on crystal structures of InhA protein: Apo-form, in complex with its natural ligands and inhibitors” (Eur J Med Chem, 2018)
Converted amounts (≈) assume the structure as drawn.

Columns and labels:
[1] = test system: Mycobacterium tuberculosis; assay: Antimycobacterial activity against Mycobacterium tuberculosis; type: functional
[2] = target: T1, Enoyl-[acyl-carrier-protein] reductase [NADH] (Mycobacterium tuberculosis, UniProt P9WGR1); assay: Inhibition of Mycobacterium tuberculosis InhA using trans-2-dodecenoyl-CoA as substrate
T1 sequence (P9WGR1 whole entry): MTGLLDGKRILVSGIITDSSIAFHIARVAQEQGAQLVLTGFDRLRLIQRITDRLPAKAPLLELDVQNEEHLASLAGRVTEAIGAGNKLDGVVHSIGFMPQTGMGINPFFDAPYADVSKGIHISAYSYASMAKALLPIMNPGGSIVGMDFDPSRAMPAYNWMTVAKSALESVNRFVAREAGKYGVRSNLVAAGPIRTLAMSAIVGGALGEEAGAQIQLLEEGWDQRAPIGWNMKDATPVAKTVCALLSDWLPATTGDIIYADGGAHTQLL

[3] = target: T1, Enoyl-[acyl-carrier-protein] reductase [NADH]; assay: Binding affinity to Mycobacterium tuberculosis InhA in presence of TCEP and NADH by isothermal titration calorimetry
[4] = target: T1, Enoyl-[acyl-carrier-protein] reductase [NADH]; assay: Inhibition of Mycobacterium tuberculosis InhA
[5] = target: T1, Enoyl-[acyl-carrier-protein] reductase [NADH]; assay: Binding affinity to Mycobacterium tuberculosis InhA in presence of NADH by surface plasmon resonance assay
[6] = target: T1, Enoyl-[acyl-carrier-protein] reductase [NADH]; assay: Binding affinity to Mycobacterium tuberculosis InhA in presence of NAD+ by surface plasmon resonance assay
[7] = test system: Mycobacterium tuberculosis; assay: Antimycobacterial activity against Mycobacterium tuberculosis after 5 days by fluoresence analysis; type: functional; settings: 120 h
[8] = target: T1, Enoyl-[acyl-carrier-protein] reductase [NADH]
[9] = target: T1, Enoyl-[acyl-carrier-protein] reductase [NADH]; assay: Inhibition of Mycobacterium tuberculosis InhA using trans-2-decenoyl-CoA as substrate by spectrophotometric analysis
[10] = target: T1, Enoyl-[acyl-carrier-protein] reductase [NADH]; assay: Binding affinity to Mycobacterium tuberculosis InhA in presence of NADH
[11] = target: T1, Enoyl-[acyl-carrier-protein] reductase [NADH]; assay: Binding affinity to Mycobacterium tuberculosis InhA in presence of NAD+
[12] = target: T1, Enoyl-[acyl-carrier-protein] reductase [NADH]; assay: Inhibition of Mycobacterium tuberculosis InhA using dodecenoyl-CoA as substrate in presence of NADH by fluorimetric analysis

O=c1[nH]c(CC2CCCCC2)cc(O)c1-c1ccccc1
MIC50 [1]: 0.31 µM (≈ 0.0878 µg/mL) | IC50 [2]: 590 nM | Kd [3]: 560 nM

NNC(=O)c1ccncc1 [ISONIAZID]
MIC [1]: 1.8 µM (≈ 0.247 µg/mL)

NC(=O)c1c[n+]([C@@H]2O[C@H](COP(=O)(O)OP(=O)(O)OC[C@H]3O[C@@H](n4cnc5c(N)ncnc54)[C@H](OP(=O)(O)O)[C@@H]3O)[C@@H](O)[C@H]2O)ccc1C(=O)c1ccncc1
Ki [4]: 130 nM

Oc1cc(Cl)ccc1Oc1ccc(Cl)cc1Cl [TRICLOSAN]
MIC99 [1]: 43.1 µM (≈ 12.5 µg/mL)

Cc1cc(C)n(Cc2ccc(C(=O)NCc3ccc(F)cc3Cl)cc2)n1
Ki [4]: 50 nM | MIC90 [1]: 10 µM (≈ 3.72 µg/mL)

CNC(=O)c1cnc(NC2CCN(c3ccccn3)CC2)c(NCc2ccc(F)c(Oc3ccccc3)c2)c1
Kd [5]: 250 nM | Kd [6]: > 100000 nM | MIC50 [7]: 25 µM (≈ 13.2 µg/mL) | IC50 [8]: 297 nM

Oc1cc(CCc2ccccc2)ccc1Oc1ccc(Cl)cc1Cl
IC50 [4]: 21 nM | MIC50 [1]: 52 µM (≈ 18.7 µg/mL)

Oc1cc(CC2CCCCC2)ccc1Oc1ccc(Cl)cc1Cl
IC50 [4]: 110 nM | MIC50 [1]: 27 µM (≈ 9.48 µg/mL)

CNC(=O)CN1CCN(C(=O)[C@H]2CC[C@@H](NC(=O)Cc3sc4ccccc4c3C)CC2)[C@@H](Cc2ccccc2)C1=O
Kd [5]: 340 nM | Kd [6]: 13400 nM | MIC50 [7]: 13 µM (≈ 7.47 µg/mL) | IC50 [8]: 65 nM

CCCCCCc1ccc(Oc2ccccc2C#N)c(O)c1
Ki [4]: 2.14 nM | MIC50 [1]: 8.4 µM (≈ 2.48 µg/mL)

CCCCCCc1ccc(Oc2ccccc2C)c(O)c1
MIC50 [1]: 10.9 µM (≈ 3.1 µg/mL)

CCCc1cc(C(=O)c2cc[n+]([C@@H]3O[C@H](COP(=O)(O)OP(=O)(O)OC[C@H]4O[C@@H](n5cnc6c(N)ncnc65)[C@H](O)[C@@H]4O)[C@@H](O)[C@H]3O)cc2C(N)=O)ccn1
Ki [4]: 2 nM | MIC50 [1]: 2.7 µM

CCCCCCc1ccc(Oc2ccccc2Br)c(O)c1
IC50 [4]: 10 nM | MIC50 [1]: 8.8 µM (≈ 3.07 µg/mL)

CCCCCCc1ccc(Oc2ccccc2Cl)c(O)c1
MIC50 [1]: 5.1 µM (≈ 1.55 µg/mL)

CCCCCCc1ccc(Oc2ccccc2[N+](=O)[O-])c(O)c1
MIC50 [1]: 39.6 µM (≈ 12.5 µg/mL)

CCCCc1ccnc(Cc2ccc(Oc3ccc(Cl)cc3Cl)c(O)c2)c1
Ki [4]: 1100 nM | MIC99 [1]: 6.4 µM (≈ 2.57 µg/mL)

CNC(=O)[C@@H]1C[C@H](NC(=O)[C@@H](NC(=O)c2ccc(Cn3cccn3)cc2)[C@@H](C)OC(C)(C)C)CN1C(=O)c1ccccc1
Kd [5]: 55 nM | Kd [6]: 49000 nM | MIC50 [7]: 0.13 µM (≈ 0.0765 µg/mL) | IC50 [8]: 12000 nM

CC1(C)CCC(Cc2cc(O)c(-c3ccccc3)c(=O)[nH]2)CC1
MIC50 [1]: 0.08 µM (≈ 0.0249 µg/mL) | IC50 [2]: 570 nM

CNC(=O)CN(Cc1ccc(F)cc1)C(=O)[C@H]1CC[C@@H](NC(=O)Cc2sc3ccccc3c2C)CC1
Kd [5]: 94 nM | Kd [6]: 46700 nM | IC50 [8]: 600 nM

CCc1cc(C(=O)c2cc[n+]([C@@H]3O[C@H](COP(=O)(O)OP(=O)(O)OC[C@H]4O[C@@H](n5cnc6c(N)ncnc65)[C@H](O)[C@@H]4O)[C@@H](O)[C@H]3O)cc2C(N)=O)ccn1
Ki [4]: 7 nM | MIC50 [1]: 3 µM

CNC(=O)CN(C(=O)Cc1ccc(-n2cccn2)cc1)C1CCN(c2ccccn2)CC1
Kd [5]: 36.8 nM | Kd [6]: > 100000 nM | MIC50 [7]: 50 µM (≈ 21.6 µg/mL) | IC50 [8]: 5900 nM

Cc1ccn(C(C)c2nnc(Nc3ccn(Cc4c(F)cccc4Cl)n3)s2)n1 (centres undefined)
Ki [4]: 2 nM | MIC50 [1]: 1 µM (≈ 0.418 µg/mL)

NC(=O)c1c[n+]([C@@H]2O[C@H](COP(=O)(O)OP(=O)(O)OC[C@H]3O[C@@H](n4cnc5c(N)ncnc54)[C@H](O)[C@@H]3O)[C@@H](O)[C@H]2O)ccc1C(=O)c1ccncc1
Ki [9]: 0.75 nM

Cc1csc(C(C)(O)c2nnc(Nc3ccn(Cc4c(F)cccc4F)n3)s2)n1 (centres undefined)
MIC50 [1]: 0.19 µM (≈ 0.0826 µg/mL) | Kd [10]: 11.5 nM | Kd [11]: 9300 nM | IC50 [12]: 3 nM

Cc1csc(C(C)(O)c2n[nH]/c(=N\C(=O)c3c(F)cccc3F)s2)n1 (centres undefined)
MIC50 [1]: 3.75 µM (≈ 1.43 µg/mL) | IC50 [12]: 200 nM

Oc1cc(Cc2ccccc2)ccc1Oc1ccc(Cl)cc1Cl
IC50 [4]: 51 nM | MIC50 [1]: 27 µM (≈ 9.32 µg/mL)

CCCCCc1ccc(Oc2ccc(Cl)cc2Cl)c(O)c1
Ki [4]: 11.8 nM | MIC99 [1]: 3.5 µM (≈ 1.14 µg/mL)
